# According to patent US8211945B2, “Carba-sugar amine derivative and glycolipid metabolic disorder treating agent containing the same as active ingredient” (Seikagaku Corporation, priority 2001, dated 2012):
# Positions count from the first letter of the chain named.
# Columns and labels:
# Assay in all cases: Mutant β-galactosidase activity in model cells, 4 days culture
# Assay type in all cases: cell-based
# [1] = target: T1, human mutant β-galactosidase Y316C (Homo sapiens, UniProt P16278, Y316C)
# T1 construct: expressed in transfected cells; host or cells: SV40-immortalized skin fibroblasts of a β-galactosidase-deficient knockout mouse
# T1 sequence (P16278 29-677 Y316C): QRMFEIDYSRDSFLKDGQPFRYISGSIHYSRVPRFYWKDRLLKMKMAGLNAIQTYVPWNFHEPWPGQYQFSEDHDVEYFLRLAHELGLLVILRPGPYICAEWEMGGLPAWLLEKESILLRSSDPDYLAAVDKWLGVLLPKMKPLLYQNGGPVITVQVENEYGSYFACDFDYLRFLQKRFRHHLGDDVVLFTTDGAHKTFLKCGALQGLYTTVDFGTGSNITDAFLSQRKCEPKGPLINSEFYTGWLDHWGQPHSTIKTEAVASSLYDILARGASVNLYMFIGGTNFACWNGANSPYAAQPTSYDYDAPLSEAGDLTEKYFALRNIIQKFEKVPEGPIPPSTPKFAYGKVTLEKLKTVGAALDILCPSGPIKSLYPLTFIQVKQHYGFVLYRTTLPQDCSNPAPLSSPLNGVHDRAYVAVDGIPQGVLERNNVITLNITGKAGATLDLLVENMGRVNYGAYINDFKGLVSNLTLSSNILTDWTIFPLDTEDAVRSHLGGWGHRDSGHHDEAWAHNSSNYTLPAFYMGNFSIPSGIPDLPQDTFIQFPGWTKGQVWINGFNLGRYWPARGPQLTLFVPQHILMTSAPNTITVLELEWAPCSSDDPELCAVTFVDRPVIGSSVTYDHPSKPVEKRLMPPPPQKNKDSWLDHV
# Description: (§1) Cultured skin fibroblasts of a β-galactosidase-deficient knockout mouse was immortalized by introducing an SV40 viral gene, and enzyme genes integrated into pSV2neo and an expression vector were also introduced simultaneously, thereby establishing a model cell (Brain Dev., 23(5), 284-287, 2001). The genes used are human normal (GP8) and mutant β-galactosidase gene Y316C, G123R (infantile GM1-gangliosidosis), R201C (juvenile GM1-gangliosidosis), 151T, T82M, R201H, R263S, R457Q (adult GM1-gangliosidosis), W273L, Y83H, R482H and R482C (Morquio-B disease) (Hum. Genet., 93(2), 109-114, 1994).
# (§2) As a control substance, 0.5 mM N-(n-butyl)-deoxygalactonojirimycin (NB-DGJ: The Journal of Biological Chemistry, 269, 27108-27114 (1994)) was used, and the substance 18 of the present invention was used in an amount of 0.2 μM.
# (§3) Specifically, after culturing the model cell for 4 days using a cell culture medium (10% FCS DMEM) containing the substance 18 of the present invention, the resulting cells were recovered and diluted such that the amount of protein in the suspension became a predetermined level, and then enzyme activity in the diluted suspension was measured. Using 4-methylumbelliferyl-β-D-galactopyranoside as the fluorescent substrate, the enzyme activity during 30 minutes was measured at 37° C.
# [2] = target: T2, human mutant β-galactosidase I51T (Homo sapiens, UniProt P16278, I51T)
# T2 construct: expressed in transfected cells; host or cells: SV40-immortalized skin fibroblasts of a β-galactosidase-deficient knockout mouse
# T2 sequence (P16278 29-677 I51T): T1 sequence (P16278 29-677 Y316C) with I23T, C288Y
# Description: as §1, §2, §3
# [3] = target: T3, human mutant β-galactosidase R201H (Homo sapiens, UniProt P16278, R201H)
# T3 construct: expressed in transfected cells; host or cells: SV40-immortalized skin fibroblasts of a β-galactosidase-deficient knockout mouse
# T3 sequence (P16278 29-677 R201H): T1 sequence (P16278 29-677 Y316C) with R173H, C288Y
# Description: as §1, §2, §3
"enzyme activity, Control ([1]; transferred gene Y316C, control substance 0.5 mM NB-DGJ)","enzyme activity, Control ([2]; transferred gene I51T, control substance 0.5 mM NB-DGJ)","enzyme activity, Control ([3]; transferred gene R201H, control substance 0.5 mM NB-DGJ)",Structure (SMILES),"Relative ratio (×100%) ([1]; Y316C, substance 18 vs control)","enzyme activity ([1]; transferred gene Y316C, 0.2 μM, 4 days)","Relative ratio (×100%) ([2]; I51T, substance 18 vs control)","enzyme activity ([2]; transferred gene I51T, 0.2 μM, 4 days)","enzyme activity increased in comparison with the control ([3]; R201H, 0.2 μM) [%]","Relative ratio (×100%) ([3]; R201H, substance 18 vs control)","enzyme activity ([3]; transferred gene R201H, 0.2 μM, 4 days)"
–,–,–,"CCCCCCCCN[C@@H]1C=C(CO)[C@H](O)C(O)[C@@H]1O (stereo partly drawn) [Substance 18, N-octyl-5a-carba-α-L-arabino-hexo-5(5a)-enopyranosylamine]",3.44 ×100%,0.80,3.08 ×100%,4.37,≥ 150,4.46 ×100%,86.05
0.23,1.42,19.28,"CCCCN1C[C@H](O)[C@@H](O)[C@@H](O)[C@H]1CO [Control, N-(n-butyl)-deoxygalactonojirimycin, reference compound]",–,–,–,–,–,–,–
